Non-standard residues stand in square brackets, D forms with d. Residues, ends and D or L forms follow the SMILES beside them. NMeR = CN[C@@H](CCCNC(=N)N)C(=O)O; NMeE = CN[C@@H](CCC(=O)O)C(=O)O; NMeD = CN[C@@H](CC(=O)O)C(=O)O; NMeV = CN[C@H](C(=O)O)C(C)C; NMeS = CN[C@@H](CO)C(=O)O

One assay deals with Sushi domains (SD1/2) protein. Kind of assay: Fluorescence polarization (FP) competition assay with AJAP-1probe, calculated Ki. The format is binding. To be noted: Table 5, elongation and truncation scan of AJAP-1 binding epitope; read-out: Ki (nM) mean ± SEM. Put shortly:
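Ki values were derived from IC50s (sigmoidal fits, ≥ triplicate), with probe Kd obtained by saturation titration of SD1/2. Peptides displaced a 25 nM TAMRA-labelled probe; polarization read at 530/580 nm in 1% BSA-containing PBS, pH 7.4, room temperature.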
On to `CC[C@H](C)[C@H](NC(=O)[C@H](Cc1ccccc1)NC(=O)[C@H](CCC(=O)O)NC(=O)[C@@H](NC(=O)[C@H](CCC(=O)O)NC(=O)[C@@H](NC(=O)[C@@H](NC(=O)[C@@H]1CCCN1C(C)=O)[C@@H](C)O)[C@@H](C)O)[C@@H](C)O)C(=O)N[C@@H](C)C(=O)N[C@@H](Cc1c[nH]c2ccccc12)C(=O)NCC(=O)N1CCC[C@H]1C(=O)N[C@H](C(=O)NCC(=O)N[C@@H](CC(=O)O)C(=O)N[C@@H](CCC(=O)O)C(=O)N[C@@H](CC(=O)O)C(N)=O)[C@@H](C)O` (Ac-PTTETEFIAWGPTGDED-NH2), for which the Ki was 30 ± 0.5 nM.

Still in this assay, the particulars now being: Table 6, elongation and truncation scan of PIANP binding epitope; read-out: Ki (nM) mean ± SEM.
`CC[C@H](C)[C@H](NC(=O)[C@H](C)NC(=O)[C@H](Cc1c[nH]c2ccccc12)NC(=O)[C@@H]1CCCN1C(C)=O)C(=O)N[C@H](C(=O)N[C@@H](Cc1c[nH]c2ccccc12)C(=O)NCC(=O)N1CCC[C@H]1C(N)=O)C(C)C` (Ac-PWAIVWGP-NH2): the Ki was 597 ± 7 nM. On the same count and under the same terms, in the case of `CC[C@H](C)[C@H](NC(=O)[C@H](C)NC(=O)[C@H](Cc1c[nH]c2ccccc12)NC(=O)[C@@H]1CCCN1C(C)=O)C(=O)N[C@H](C(=O)N[C@@H](Cc1c[nH]c2ccccc12)C(=O)NCC(=O)N1CCC[C@H]1C(=O)N[C@H](C(N)=O)[C@@H](C)O)C(C)C` (Ac-PWAIVWGPT-NH2) it was 716 ± 6 nM; in that of `CC[C@H](C)[C@H](NC(=O)[C@H](C)NC(=O)[C@H](Cc1c[nH]c2ccccc12)NC(=O)[C@@H]1CCCN1C(C)=O)C(=O)N[C@H](C(=O)N[C@@H](Cc1c[nH]c2ccccc12)C(=O)NCC(=O)N1CCC[C@H]1C(=O)N[C@H](C(=O)N[C@H](C(N)=O)C(C)C)[C@@H](C)O)C(C)C` (Ac-PWAIVWGPTV-NH2), 561 ± 21 nM; in that of `CC[C@H](C)[C@H](NC(=O)[C@H](C)NC(=O)[C@H](Cc1c[nH]c2ccccc12)NC(=O)[C@@H]1CCCN1C(C)=O)C(=O)N[C@H](C(=O)N[C@@H](Cc1c[nH]c2ccccc12)C(=O)NCC(=O)N1CCC[C@H]1C(=O)N[C@H](C(=O)N[C@H](C(=O)N[C@@H](CO)C(N)=O)C(C)C)[C@@H](C)O)C(C)C` (Ac-PWAIVWGPTVS-NH2), 463 ± 10 nM.

Regarding `CC[C@H](C)[C@H](NC(=O)[C@H](C)NC(=O)[C@H](Cc1c[nH]c2ccccc12)NC(=O)[C@@H]1CCCN1C(C)=O)C(=O)N[C@H](C(=O)N[C@@H](Cc1c[nH]c2ccccc12)C(=O)NCC(=O)N1CCC[C@H]1C(=O)N[C@H](C(=O)N[C@H](C(=O)N[C@@H](CO)C(=O)N[C@@H](CCCNC(=N)N)C(N)=O)C(C)C)[C@@H](C)O)C(C)C` (Ac-PWAIVWGPTVSR-NH2), the Ki was 433 ± 2 nM. As to `CC[C@H](C)[C@H](NC(=O)[C@H](C)NC(=O)[C@H](Cc1c[nH]c2ccccc12)NC(=O)[C@@H]1CCCN1C(C)=O)C(=O)N[C@H](C(=O)N[C@@H](Cc1c[nH]c2ccccc12)C(=O)NCC(=O)N1CCC[C@H]1C(=O)N[C@H](C(=O)N[C@H](C(=O)N[C@@H](CO)C(=O)N[C@@H](CCCNC(=N)N)C(=O)N[C@@H](CCC(=O)O)C(N)=O)C(C)C)[C@@H](C)O)C(C)C` (Ac-PWAIVWGPTVSRE-NH2), the Ki was 650 ± 9 nM. For `CC[C@H](C)[C@H](NC(=O)[C@H](C)NC(=O)[C@H](Cc1c[nH]c2ccccc12)NC(=O)[C@@H]1CCCN1C(C)=O)C(=O)N[C@H](C(=O)N[C@@H](Cc1c[nH]c2ccccc12)C(=O)NCC(=O)N1CCC[C@H]1C(=O)N[C@H](C(=O)N[C@H](C(=O)N[C@@H](CO)C(=O)N[C@@H](CCCNC(=N)N)C(=O)N[C@@H](CCC(=O)O)C(=O)N[C@@H](CC(=O)O)C(=O)NCC(=O)NCC(N)=O)C(C)C)[C@@H](C)O)C(C)C` (Ac-PWAIVWGPTVSREDGG-NH2), the Ki is 561 ± 21 nM. Still for that read-out and setting: in the case of `CC[C@H](C)[C@H](NC(=O)[C@H](C)NC(=O)[C@H](Cc1c[nH]c2ccccc12)NC(=O)[C@@H]1CCCN1C(C)=O)C(=O)N[C@H](C(=O)N[C@@H](Cc1c[nH]c2ccccc12)C(=O)NCC(=O)N1CCC[C@H]1C(=O)N[C@H](C(=O)N[C@H](C(=O)N[C@@H](CO)C(=O)N[C@@H](CCCNC(=N)N)C(=O)N[C@@H](CCC(=O)O)C(=O)N[C@@H](CC(=O)O)C(=O)NCC(=O)NCC(=O)N[C@@H](CC(=O)O)C(N)=O)C(C)C)[C@@H](C)O)C(C)C` (Ac-PWAIVWGPTVSREDGGD-NH2) it was 716 ± 6 nM; in that of `CC[C@H](C)[C@H](NC(=O)[C@H](C)NC(=O)[C@H](Cc1c[nH]c2ccccc12)NC(=O)[C@@H]1CCCN1C(C)=O)C(=O)N[C@H](C(=O)N[C@@H](Cc1c[nH]c2ccccc12)C(=O)NCC(=O)N1CCC[C@H]1C(=O)N[C@H](C(=O)N[C@H](C(=O)N[C@@H](CO)C(=O)N[C@@H](CCCNC(=N)N)C(=O)N[C@@H](CCC(=O)O)C(=O)N[C@@H](CC(=O)O)C(=O)NCC(=O)NCC(=O)N[C@@H](CC(=O)O)C(=O)N1CCC[C@H]1C(N)=O)C(C)C)[C@@H](C)O)C(C)C` (Ac-PWAIVWGPTVSREDGGDP-NH2), 597 ± 7 nM. With `CC[C@H](C)[C@H](NC(=O)[C@H](C)NC(=O)[C@H](Cc1c[nH]c2ccccc12)NC(=O)[C@@H]1CCCN1C(C)=O)C(=O)N[C@H](C(=O)N[C@@H](Cc1c[nH]c2ccccc12)C(=O)NCC(=O)N1CCC[C@H]1C(=O)N[C@H](C(=O)N[C@H](C(=O)N[C@@H](CO)C(=O)N[C@@H](CCCNC(=N)N)C(=O)N[C@@H](CCC(=O)O)C(=O)N[C@@H](CC(=O)O)C(=O)NCC(=O)NCC(=O)N[C@@H](CC(=O)O)C(=O)N1CCC[C@H]1C(=O)N[C@@H](CC(N)=O)C(N)=O)C(C)C)[C@@H](C)O)C(C)C` (Ac-PWAIVWGPTVSREDGGDPN-NH2), the Ki is 579 ± 21 nM. In the case of `CC[C@H](C)[C@H](NC(=O)[C@H](C)NC(=O)[C@H](Cc1c[nH]c2ccccc12)NC(=O)[C@@H]1CCCN1C(C)=O)C(=O)N[C@H](C(=O)N[C@@H](Cc1c[nH]c2ccccc12)C(=O)NCC(=O)N1CCC[C@H]1C(=O)N[C@H](C(=O)N[C@H](C(=O)N[C@@H](CO)C(=O)N[C@@H](CCCNC(=N)N)C(=O)N[C@@H](CCC(=O)O)C(=O)N[C@@H](CC(=O)O)C(=O)NCC(=O)NCC(=O)N[C@@H](CC(=O)O)C(=O)N1CCC[C@H]1C(=O)N[C@@H](CC(N)=O)C(=O)N[C@@H](CO)C(N)=O)C(C)C)[C@@H](C)O)C(C)C` (Ac-PWAIVWGPTVSREDGGDPNS-NH2), the Ki is 706 ± 16 nM.

Staying with this assay, now noted: Table 9, Ala-, D-amino acids and N-methylation scans of PIANPWT; read-out: Ki (nM) mean ± SEM.
In the case of `CC[C@H](C)[C@H](NC(=O)[C@H](C)NC(=O)[C@H](Cc1c[nH]c2ccccc12)NC(=O)[C@@H]1CCCN1C(C)=O)C(=O)N[C@H](C(=O)N[C@@H](Cc1c[nH]c2ccccc12)C(=O)NCC(=O)N1CCC[C@H]1C(=O)N[C@H](C(=O)N[C@H](C(=O)N[C@@H](CO)C(=O)N[C@@H](CCCNC(=N)N)C(=O)N[C@@H](C)C(=O)N[C@@H](CC(=O)O)C(N)=O)C(C)C)[C@@H](C)O)C(C)C` (Ac-PWAIVWGPTVSRAD-NH2), the Ki is 600 ± 22 nM. Still for that read-out and setting: in the case of `CC[C@H](C)[C@H](NC(=O)[C@H](C)NC(=O)[C@H](Cc1c[nH]c2ccccc12)NC(=O)[C@@H]1CCCN1C(C)=O)C(=O)N[C@H](C(=O)N[C@@H](Cc1c[nH]c2ccccc12)C(=O)NCC(=O)N1CCC[C@H]1C(=O)N[C@H](C(=O)N[C@H](C(=O)N[C@@H](CO)C(=O)N[C@@H](CCCNC(=N)N)C(=O)N[C@@H](CCC(=O)O)C(=O)N[C@@H](C)C(N)=O)C(C)C)[C@@H](C)O)C(C)C` (Ac-PWAIVWGPTVSREA-NH2) it was 572 ± 9 nM. In the case of `CC[C@H](C)[C@H](NC(=O)[C@H](C)NC(=O)[C@H](Cc1c[nH]c2ccccc12)NC(=O)[C@@H]1CCCN1C(C)=O)C(=O)N[C@H](C(=O)N[C@@H](Cc1c[nH]c2ccccc12)C(=O)NCC(=O)N1CCC[C@H]1C(=O)N[C@H](C(=O)N[C@H](C(=O)N[C@@H](CO)C(=O)N[C@@H](CCCNC(=N)N)C(=O)N[C@@H](CCC(=O)O)C(=O)N(C)[C@@H](CC(=O)O)C(N)=O)C(C)C)[C@@H](C)O)C(C)C` (Ac-PWAIVWGPTVSRE[NMeD]-NH2), the inhibitory constant (Ki) was 434 ± 10 nM. With `CC[C@H](C)[C@H](NC(=O)[C@H](C)NC(=O)[C@H](Cc1c[nH]c2ccccc12)NC(=O)[C@@H]1CCCN1C(C)=O)C(=O)N[C@H](C(=O)N[C@@H](Cc1c[nH]c2ccccc12)C(=O)NCC(=O)N1CCC[C@H]1C(=O)N[C@H](C(=O)N[C@H](C(=O)N[C@@H](CO)C(=O)N[C@@H](CCCNC(=N)N)C(=O)N(C)[C@@H](CCC(=O)O)C(=O)N[C@@H](CC(=O)O)C(N)=O)C(C)C)[C@@H](C)O)C(C)C` (Ac-PWAIVWGPTVSR[NMeE]D-NH2), the Ki was 523 ± 13 nM.

In the case of `CC[C@H](C)[C@H](NC(=O)[C@H](C)NC(=O)[C@H](Cc1c[nH]c2ccccc12)NC(=O)[C@@H]1CCCN1C(C)=O)C(=O)N[C@H](C(=O)N[C@@H](Cc1c[nH]c2ccccc12)C(=O)NCC(=O)N1CCC[C@H]1C(=O)N[C@H](C(=O)N[C@H](C(=O)N[C@@H](CO)C(=O)N(C)[C@@H](CCCNC(=N)N)C(=O)N[C@@H](CCC(=O)O)C(=O)N[C@@H](CC(=O)O)C(N)=O)C(C)C)[C@@H](C)O)C(C)C` (Ac-PWAIVWGPTVS[NMeR]ED-NH2), the Ki is 502 ± 15 nM.

For the compound `CC[C@H](C)[C@H](NC(=O)[C@H](C)NC(=O)[C@H](Cc1c[nH]c2ccccc12)NC(=O)[C@@H]1CCCN1C(C)=O)C(=O)N[C@H](C(=O)N[C@@H](Cc1c[nH]c2ccccc12)C(=O)NCC(=O)N1CCC[C@H]1C(=O)N[C@H](C(=O)N[C@H](C(=O)N(C)[C@@H](CO)C(=O)N[C@@H](CCCNC(=N)N)C(=O)N[C@@H](CCC(=O)O)C(=O)N[C@@H](CC(=O)O)C(N)=O)C(C)C)[C@@H](C)O)C(C)C` (Ac-PWAIVWGPTV[NMeS]RED-NH2), the inhibitory constant (Ki) was 1045 ± 1 nM. `CC[C@H](C)[C@H](NC(=O)[C@H](C)NC(=O)[C@H](Cc1c[nH]c2ccccc12)NC(=O)[C@@H]1CCCN1C(C)=O)C(=O)N[C@H](C(=O)N[C@@H](Cc1c[nH]c2ccccc12)C(=O)NCC(=O)N1CCC[C@H]1C(=O)N[C@H](C(=O)N(C)[C@H](C(=O)N[C@@H](CO)C(=O)N[C@@H](CCCNC(=N)N)C(=O)N[C@@H](CCC(=O)O)C(=O)N[C@@H](CC(=O)O)C(N)=O)C(C)C)[C@@H](C)O)C(C)C` (Ac-PWAIVWGPT[NMeV]SRED-NH2): the Ki was 1780 ± 87 nM.

One may read the Ki as a dissociation constant, usually derived from enzyme kinetics or from competition with a known ligand.

Values taken from patent US20260193293A1, “PEPTIDES CAPABLE OF INHIBITING PROTEIN-PROTEIN INTERACTIONS AT GABAB1A SUBUNIT AND USES THEREOF” (UNIVERSITY OF COPENHAGEN, priority 2022, published 2026).
